Measurements published in patent US20050208496A1, “Methods of testing for bronchial asthma or chronic obstructive pulmonary disease” (Genox Research, Inc., priority 2002, published 2005).
Where two headings read alike, the source gives them in different places.

Tested on: respiratory epithelial cells
Conditions: IL-13 vs no stimulation

IL-13: human IL-13 (Peprotech, Inc.) added to the medium at 50 ng/mL to stimulate respiratory epithelial cells
BENE (33331_at) expression change (lot 1 Day 3 IMM): −2.8
CRA (1230_g_at) expression change (lot 1 Day 3 IMM): −2.3
CTSL2 (40717_at) expression change (lot 1 Day 3 IMM): −2.2
DUSP1 (1005_at) expression change (lot 1 Day 3 IMM): −2.4
IGFBP3 (37319_at) expression change (lot 1 Day 3 IMM): −2
IGFBP6 (1736_at) expression change (lot 1 Day 3 IMM): −2.8
MMP9 (31859_at) expression change (lot 1 Day 3 IMM): −7.3
MMP10 (1006_at) expression change (lot 1 Day 3 IMM): −3.4
MSMB (32149_at) expression change (lot 1 Day 3 IMM): −3.7
NDRG1 (36933_at) expression change (lot 1 Day 3 IMM): −2.3
NOTCH3 (38750_at) expression change (lot 1 Day 3 IMM): −3.5
PFTK1 (36502_at) expression change (lot 1 Day 3 IMM): −2.6
PSCA (33792_at) expression change (lot 1 Day 3 IMM): −3.9
SERPINA3 (33825_at) expression change (lot 1 Day 3 IMM): −3.8
SERPINE1 (672_at) expression change (lot 1 Day 3 IMM): −7.7
SERPINE1 (38125_at) expression change (lot 1 Day 3 IMM): −4.2
TSPAN-5 (40990_at) expression change (lot 1 Day 3 IMM): −2.8
AGR2 (38827_at) expression change (lot 1 Day 7 AI): −2.7
AKR1B10 (37482_at) expression change (lot 1 Day 7 AI): −7.5
AKR1C3 (37399_at) expression change (lot 1 Day 7 AI): −4
ANXA10 (32349_at) expression change (lot 1 Day 7 AI): −2.5
APM2 (32527_at) expression change (lot 1 Day 7 AI): −3.8
AREG (34898_at) expression change (lot 1 Day 7 AI): −4.8
BCAS1 (37821_at) expression change (lot 1 Day 7 AI): −3.7
BENE (33331_at) expression change (lot 1 Day 7 AI): −7.3
C4.4A (41641_at) expression change (lot 1 Day 7 AI): −2.5
CRA (1230_g_at) expression change (lot 1 Day 7 AI): −2
DEFB2 (32464_at) expression change (lot 1 Day 7 AI): −4.3
ECM1 (37600_at) expression change (lot 1 Day 7 AI): −4.7
EPHA1 (1108_s_at) expression change (lot 1 Day 7 AI): −3.2
ETFB (36881_at) expression change (lot 1 Day 7 AI): −2
FABP5 (39799_at) expression change (lot 1 Day 7 AI): −4.2
GABRE (34280_at) expression change (lot 1 Day 7 AI): −2
GPNMB (38379_at) expression change (lot 1 Day 7 AI): 3.6
HLA-DPB1 (38095_i_at) expression change (lot 1 Day 7 AI): −4.4
HLA-DPB1 (38096_f_at) expression change (lot 1 Day 7 AI): −2.6
IGFBP3 (1586_at) expression change (lot 1 Day 7 AI): −2.4
IGFBP3 (37319_at) expression change (lot 1 Day 7 AI): −2.7
IGFBP6 (1736_at) expression change (lot 1 Day 7 AI): −7.7
IMPA2 (36496_at) expression change (lot 1 Day 7 AI): −2
MMP9 (31859_at) expression change (lot 1 Day 7 AI): −10.9
MN1 (37283_at) expression change (lot 1 Day 7 AI): −3.2
MSMB (32149_at) expression change (lot 1 Day 7 AI): −11.7
NCALD (38803_at) expression change (lot 1 Day 7 AI): −2.8
NDRG1 (36933_at) expression change (lot 1 Day 7 AI): −3.6
NOTCH3 (38750_at) expression change (lot 1 Day 7 AI): −4.6
PSCA (33792_at) expression change (lot 1 Day 7 AI): −5.8
PTK2B (33804_at) expression change (lot 1 Day 7 AI): −6.4
PTPRZ1 (1364_at) expression change (lot 1 Day 7 AI): −3.7
RARRES1 (33505_at) expression change (lot 1 Day 7 AI): −3.3
RDC1 (34288_at) expression change (lot 1 Day 7 AI): −5.3
RTP801 (39827_at) expression change (lot 1 Day 7 AI): −2
S100A8 (41096_at) expression change (lot 1 Day 7 AI): −6.2
SERPINA3 (33825_at) expression change (lot 1 Day 7 AI): −14.1
SERPINB1 (33305_at) expression change (lot 1 Day 7 AI): −2.3
SERPINB5 (862_at) expression change (lot 1 Day 7 AI): −2.2
SERPINE1 (672_at) expression change (lot 1 Day 7 AI): −7.8
SERPINE1 (38125_at) expression change (lot 1 Day 7 AI): −18.3
STK39 (39120_at) expression change (lot 1 Day 7 AI): −2.9
TSPAN-5 (40990_at) expression change (lot 1 Day 7 AI): −3.6
VRP (38223_at) expression change (lot 1 Day 7 AI): −2.5
c-fos (1916_s_at) expression change (lot 1 Day 7 AI): −2.6
AKR1B10 (37482_at) expression change (lot 1 Day 7 IMM): −6.7
AKR1C3 (37399_at) expression change (lot 1 Day 7 IMM): −2.3
APM2 (32527_at) expression change (lot 1 Day 7 IMM): −6.2
AREG (34898_at) expression change (lot 1 Day 7 IMM): −5.2
BENE (33331_at) expression change (lot 1 Day 7 IMM): −4.7
ECM1 (37600_at) expression change (lot 1 Day 7 IMM): −18.4
FABP5 (39799_at) expression change (lot 1 Day 7 IMM): −3.7
GPNMB (38379_at) expression change (lot 1 Day 7 IMM): 4.9
IGFBP3 (1586_at) expression change (lot 1 Day 7 IMM): −3.1
IGFBP3 (37319_at) expression change (lot 1 Day 7 IMM): −3.1
IGFBP6 (1736_at) expression change (lot 1 Day 7 IMM): −5.4
MMP9 (31859_at) expression change (lot 1 Day 7 IMM): −16
NDRG1 (36933_at) expression change (lot 1 Day 7 IMM): −2.4
NOTCH3 (38750_at) expression change (lot 1 Day 7 IMM): −2.7
PFTK1 (36502_at) expression change (lot 1 Day 7 IMM): −3.2
PTK2B (33804_at) expression change (lot 1 Day 7 IMM): −4.1
RARRES1 (1042_at) expression change (lot 1 Day 7 IMM): −3.5
RARRES1 (33505_at) expression change (lot 1 Day 7 IMM): −2.7
RDC1 (34288_at) expression change (lot 1 Day 7 IMM): −2.2
SEC14L2 (32817_at) expression change (lot 1 Day 7 IMM): −2.9
SERPINA3 (33825_at) expression change (lot 1 Day 7 IMM): −5.9
SERPINB1 (33305_at) expression change (lot 1 Day 7 IMM): −2.1
SERPINB5 (862_at) expression change (lot 1 Day 7 IMM): −2.5
SERPINE1 (672_at) expression change (lot 1 Day 7 IMM): −31.3
SERPINE1 (38125_at) expression change (lot 1 Day 7 IMM): −20.1
STK39 (39120_at) expression change (lot 1 Day 7 IMM): −2
TSPAN-5 (40990_at) expression change (lot 1 Day 7 IMM): −2.8
c-fos (1915_s_at) expression change (lot 1 Day 7 IMM): −4.3
c-fos (1916_s_at) expression change (lot 1 Day 7 IMM): −4.7
AKR1B10 (37482_at) expression change (lot 2 Day 3 AI): −7.1
AKR1C3 (37399_at) expression change (lot 2 Day 3 AI): −2.6
ANXA10 (32349_at) expression change (lot 2 Day 3 AI): −7.5
APM2 (32527_at) expression change (lot 2 Day 3 AI): −2.7
AREG (34898_at) expression change (lot 2 Day 3 AI): −14.6
BCAS1 (37821_at) expression change (lot 2 Day 3 AI): −4.6
BDKRB2 (39310_at) expression change (lot 2 Day 3 AI): −2.4
BENE (33331_at) expression change (lot 2 Day 3 AI): −4.8
CRA (1230_g_at) expression change (lot 2 Day 3 AI): −3.4
CTSL2 (40717_at) expression change (lot 2 Day 3 AI): −3.2
DUSP1 (1005_at) expression change (lot 2 Day 3 AI): −4.3
EPHA1 (1108_s_at) expression change (lot 2 Day 3 AI): −2.8
FABP5 (39799_at) expression change (lot 2 Day 3 AI): −3
GPNMB (38379_at) expression change (lot 2 Day 3 AI): −2.2
IGFBP3 (1586_at) expression change (lot 2 Day 3 AI): −2.9
IGFBP3 (37319_at) expression change (lot 2 Day 3 AI): −3
